The values below come from patent US10053455B2, “Diazaspiroalkaneone-substituted oxazole derivatives as spleen tyrosine kinase inhibitors” (AB SCIENCE, priority 2014, dated 2018).

Bounds are passed on as bounds.

One series concerns the target SYK kinase (Homo sapiens (Human), UniProt P43405). The series can be described thus: In vitro SYK inhibition assay (HTRF kinase assay). In kind it is biochemical. The following applies: read-out: Syk (IC50). As to the method: SYK kinase was purified as a full length protein in a baculovirus system near homogeneity. All kinase assays were performed with the Kinase TK (tyrosine kinase) HTRF (Homogeneous Time Resolved Fluorescence) assay developed by Cisbio international. […] Reactions were initiated upon introduction of the enzyme and terminated with the addition of one reaction volume (25 μl) of HTRF detection buffer. Plates were incubated for one hour at room temperature and the time resolved Fluorescence resonance energy transfer signal was measured in a Pherastar FS microplate reader (BMG Labtech).
Most of the kinases tested in this study were cloned, expressed and purified in the facilities of the inventors. They were expressed either as N-terminus hexahistidine-, hexahistidine-asparagine- or GST-tagged enzymes in a baculovirus or in a Colibacille expression system. Remaining enzymes (JAKs) were purchased from Millipore or Proqinase. For each enzyme, steady state kinetic parameters were determined and validated with known inhibitors.
The analysis of the effect of compounds on kinase activity was assessed with the HTRF® KinEASE assay (Cisbio International), an immuno-assay based on the quantification of the level of phosphorylation of a biotinylated peptide substrate using anti-phospho-specific antibody labeled with Europium (Eu^3+) cryptate. This assay comprises two steps: —an enzymatic step, during which the peptide substrate, the kinase, ATP, Mg^2+ and/or Mn^2+ are incubated with varying concentration of drug (from 0 to 10 μM); —a detection step, at the end of the reaction (stopped by addition of EDTA which chelates Mg^2+), the antibody anti-phospho peptide-Eu^3+ (emission 620 nm) and streptavidin XL-665 (emission 665 nm) are added to the reaction mix. After incubation, the obtained signal is proportional to the concentration of phosphorylated peptide in the sample. All measurements were performed on a BMG Labtech Pherastar FS apparatus. Results are expressed in delta fluorescence (DF) unit defined as follow DF %=[(ratio−ratio blank)/(ratio blank)]*100, where ratio=(665 nm/620 nm)*10^4. Each experiment was performed in duplicate and repeated two or three times.
Consider `O=C1NCCN(c2ncc(-c3cc(Nc4nccc(C(F)(F)F)n4)ccc3OCCN3CCOCC3)o2)C12CC2` [Compound 017, 4-{5-[2-(2-Morpholin-4-yl-ethoxy)-5-(4-trifluoromethyl-pyrimidin-2-ylamino)-phenyl]-oxazol-2-yl}-4,7-diaza-spiro[2.5]octan-8-one], for which the concentration for half-maximal inhibition (IC50) – broadly, the concentration that inhibits the measured activity by half – is under 500 nM.

Regarding `Cc1ccnc(Nc2cc(CN3CCOCC3)cc(-c3cnc(N4CCNC(=O)C45CC5)o3)c2)n1` [Compound 006, 4-{5-[3-(4-Methyl-pyrimidin-2-ylamino)-5-morpholin-4-ylmethyl-phenyl]-oxazol-2-yl}-4,7-diaza-spiro[2.5]octan-8-one], the IC50 is under 500 nM.

Consider `O=C1NCCN(c2ncc(-c3cc(CN4CCOCC4)cc(Nc4nccc(C(F)(F)F)n4)c3)o2)C12CC2` [Compound 003, 4-{5-[3-Morpholin-4-ylmethy1-5-(4-trifluoromethyl-pyrimidin-2-ylamino)-phenyl]-oxazol-2-yl}-4,7-diaza-spiro[2.5]octan-8-one], for which the IC50 was under 500 nM.

With `Cc1ccnc(Nc2cccc(-c3cnc(N4CCNC(=O)C45CC5)o3)c2C)n1` [Compound 020, 4-{5-[2-Methyl-3-(4-methyl-pyrimidin-2-ylamino)-pheny]-oxazol-2-yl}-4,7-diaza-spiro[2.5]octan-8-one], the IC50 is over 2000 nM.

With `O=C1NCCN(c2ncc(-c3cc(Nc4nccc(-c5cccs5)n4)ccc3OCCN3CCOCC3)o2)C12CC2` [Compound 004, 4-{5-[2-(2-Morpholin-4-yl-ethoxy)-5-(4-thiophen-2-yl-pyrimidin-2-ylamino)-phenyl]-oxazol-2-yl}-4,7-diaza-spiro[2.5]octan-8-one], the IC50 was under 500 nM.

In the case of `CCc1ccnc(Nc2cccc(-c3cnc(N4CCNC(=O)C45CC5)o3)c2)n1` [Compound 007, 4-{5-[3-(4-Ethyl-pyrimidin-2-ylamino)-phenyl]-oxazol-2-yl}-4,7-diaza-spiro[2.5]octan-8-one], the IC50 is under 500 nM.

Consider `N#Cc1ccnc(Nc2cccc(-c3cnc(N4CCNC(=O)C45CC5)o3)c2)n1` [Compound 002, 2-{3-[2-(8-Oxo-4,7-diaza-spiro[2.5]oct-4-yl)-oxazol-5-yl]-phenylamino}-pyrimidine-4-carbonitrile], for which the IC50 was under 500 nM.

`O=C1NCCN(c2ncc(-c3cccc(Nc4nccc(C(F)(F)F)n4)c3)o2)C12CCC2` [Compound 016, 5-{5-[3-(4-Trifluoromethyl-pyrimidin-2-ylamino)-phenyl]-oxazol-2-yl}-5,8-diaza-spiro[3.5]nonan-9-one]: the IC50 is under 500 nM.

As to `Cc1ccnc(Nc2cccc(-c3cnc(N4CCNC(=O)C45CCC5)o3)c2)n1` [Compound 012, 5-{5-[3-(4-Methyl-pyrimidin-2-ylamino)-phenyl]-oxazol-2-yl}-5,8-diaza-spiro[3.5]nonan-9-one], the IC50 was under 500 nM.

As for `CC(C)c1ccnc(Nc2cccc(-c3cnc(N4CCNC(=O)C45CC5)o3)c2)n1` [Compound 013, 4-{5-[3-(4-Isopropyl-pyrimidin-2-ylamino)-phenyl]-oxazol-2-yl}-4,7-diaza-spiro[2.5]octan-8-one], the IC50 is under 500 nM.

For the compound `Cc1ccnc(Nc2cccc(-c3cnc(N4CCNC(=O)C45CC5)o3)c2)c1` [Compound 021, 4-{5-[3-(4-Methyl-pyridin-2-ylamino)-phenyl]-oxazol-2-yl}-4,7-diaza-spiro[2.5]octan-8-one], the 50% inhibitory concentration (IC50) is 500 to 2000 nM.

Take `Cc1ccnc(Nc2ccc(F)c(-c3cnc(N4CCNC(=O)C45CC5)o3)c2)n1` [Compound 018, 4-{5-[2-Fluoro-5-(4-methyl-pyrimidin-2-ylamino)-phenyl]-oxazol-2-yl}-4,7-diaza-spiro[2.5]octan-8-one]: the IC50 is under 500 nM.

`O=C1NCCN(c2ncc(-c3cccc(Nc4nccc(-c5cccs5)n4)c3)o2)C12CC2` [Compound 015, 4-{5-[3-(4-Thiophen-2-yl-pyrimidin-2-ylamino)-phenyl]-oxazol-2-yl}-4,7-diaza-spiro[2.5]octan-8-one]: the IC50 is under 500 nM.

As for `Cc1cc(Nc2nccc(C(F)(F)F)n2)cc(-c2cnc(N3CCNC(=O)C34CC4)o2)c1` [Compound 005, 4-{5-[3-Methy1-5-(4-trifluoromethyl-pyrimidin-2-ylamino)-phenyl]-oxazol-2-yl}-4,7-diaza-spiro[2.5]octan-8-one], the IC50 is under 500 nM.

Regarding `O=C1NCCN(c2ncc(-c3cccc(Nc4nccs4)c3)o2)C12CC2` [Compound 022, 4-{5-[3-(Thiazol-2-ylamino)-phenyl]-oxazol-2-yl}-4,7-diaza-spiro[2.5]octan-8-one], the IC50 was under 500 nM.

For `O=C1NCCN(c2ncc(-c3cccc(Nc4nccc(C(F)(F)F)n4)c3)o2)C12CC2` [Compound 008, 4-{5-[3-(4-Trifluoromethyl-pyrimidin-2-ylamino)-phenyl]-oxazol-2-yl}-4,7-diaza-spiro[2.5]octan-8-one], the IC50 was under 500 nM.

Turning to `CC(C)c1ccnc(Nc2cccc(-c3cnc(N4CCNC(=O)C45CCC5)o3)c2)n1` [Compound 011, 5-{5-[3-(4-Isopropyl-pyrimidin-2-ylamino)-phenyl]-oxazol-2-yl}-5,8-diaza-spiro[3.5]non-9-one], the half-inhibitory concentration (IC50) is under 500 nM.

On to `Cc1ccnc(Nc2cccc(-c3cnc(N4CCNC(=O)C45CCCC5)o3)c2)n1` [Compound 009, 6-{5-[3-(4-Methyl-pyrimidin-2-ylamino)-phenyl]-oxazol-2-yl}-6,9-diaza-spiro[4.5]decan-10-one], for which the IC50 was under 500 nM.

With `O=C1NCCN(c2ncc(-c3cccc(Nc4nccc(-c5ccccc5)n4)c3)o2)C12CC2` [Compound 010, 4-{5-[3-(4-Phenyl-pyrimidin-2-ylamino)-phenyl]-oxazol-2-yl}-4,7-diaza-spiro[2.5]octan-8-one], the IC50 is under 500 nM.

Regarding `O=C1NCCN(c2ncc(-c3cccc(Nc4nccc(N5CCOCC5)n4)c3)o2)C12CC2` [Compound 014, 4-{5-[3-(4-Morpholin-4-yl-pyrimidin-2-ylamino)-phenyl]-oxazol-2-yl}-4,7-diaza-spiro[2.5]octan-8-one], the half-maximal inhibitory concentration (IC50) is over 2000 nM.

The next series deals with Salmonella typhimurium strain TA98. The series can be described thus: AMES mutagenic assay, TA98 strain. The following applies: Salmonella typhimurium, 0.25 μg per well. The method, then: Mutagenic activity of test compounds and their metabolites (produced by rat liver S9 fraction) was evaluated in the Salmonella typhimurium strains TA100 and TA98 according to the Ames assay (Toxicology in vitro, (2001), 15: 105-114). […] The results are expressed as a mutagenicity ratio in comparison to solvent controls.
The results are expressed as a ratio of the number of colonies over the number of colonies in the negative control (DMSO).
In the case of `O=[N+]([O-])c1ccc2c(c1)Cc1ccccc1-2` [Compound 2-NF, 2-Nitrofluorene, reference compound], the “Mean revertant colony counts” value is listed as 59.7.

The series is the same for the next values; noted with them: TA98, absence of S-9, 0.25 μg per well (positive control).
Consider `O=[N+]([O-])c1ccc2c(c1)Cc1ccccc1-2` [Compound 2-NF, 2-Nitrofluorene, reference compound], for which the Ratio treated/solvent was 13.8.
